Measurements as given in patent publication US20210169690A1, “Self-Retaining Implantable Drug Delivery Device” (GoldenBiotech, LLC, priority 2019, published 2021).

Tests used:
[1] = Visual examination of physical appearance and mixing of drug-loaded silicone polymer matrix test samples; assay type: physicochemical; conditions: 15% and 20% Travoprost test samples
From the text: To test the loading capacity of a silicone elastomer polymer matrix for a prostaglandin analogue, polymer matrix with different amounts and types of a prostaglandin analogue were made and the physical and mechanical properties of the resulting polymerized drug-loaded matrix were characterized (Tables 1-3). These polymer matrix test samples were made by mixing together a prostaglandin analogue, a liquid cyclic vinyl siloxane elastomer, a crosslinker, and a catalyst using a high-speed mixer and then heated the capped container at 70° C. for 24 hours to cure the mixture. A filler, such as a fumed silica, was also used to provide sufficient mechanical strength to the polymerized matrix. In addition, an inhibitor was used to slow the crosslinking reaction to a workable rate. The resulting thin-disc-shaped drug-loaded polymer matrix was allowed to cool to room temperature and then placed in 4° C. for 24 hours to increase stiffness of the material. The physical appearance of each drug-loaded polymer matrix test sample was examined visually and its mechanical properties analyzed using a durometer.

[2] = Higuchi equation analysis of drug release data; assay type: physicochemical
Description: In order to ascertain whether the mechanism of drug release was based on diffusion, data obtained from various coated silicone polymer matrices were analyzed using the Higuchi equation. This analysis determined the linearity between the cumulative amount of drug released and the square root of time (SQRT). […] As exemplified FIG. 10, data is plotted as the square root of time taken on the x-axis and the cumulative percentage of drug release on the y-axis.

Average Linear Regression r^2 Value, Higuchi Equation Analysis ([2]; Drug Loading 2.5%): 0.976
Average Linear Regression r^2 Value, Higuchi Equation Analysis ([2]; Drug Loading 5%): 0.972
Average Linear Regression r^2 Value, Higuchi Equation Analysis ([2]; Drug Loading 10%): 0.941
Compound: CC(C)OC(=O)CCC/C=C\C[C@@H]1[C@@H](/C=C/[C@@H](O)COc2cccc(C(F)(F)F)c2)[C@H](O)C[C@@H]1O [Travoprost]
physical examination of test samples [1]: exhibited more elasticity but had surfaces with tacky attributes and a consistency that was not fully homogeneous
